Assays:
[1] = DPPH radical scavenging activity; conditions: 100 µM compound, methanolic DPPH 0.025 mg/mL, 517 nm
Experimental: DPPH (2,2-diphenyl-1-picrylhydrazyl) was used to explore the free radical quenching ability of 3a-o so as to provide a gauge of their antioxidant potential. The experiment was conducted according to a previously reported protocol with slight modifications. Percent free radical scavenging activities (% FRSA) of 3a-o were determined by spectrophotometric analysis at 517 nm using a homogenous mixture of methanolic DPPH (0.025 mg/mL) and a 100 µM solution of the tested compound, with ascorbic acid used as a positive control (Fig. 3).

[2] = biological target: T1, ALR1 (Bos taurus, UniProt Q3ZCJ2); experiment: ALR1 enzyme inhibition assay (enzyme extracted from calf kidneys); type: biochemical, bovine; conditions: for IC50: bovine kidney ALR1, substrate sodium-D-glucoronate, mean ± SEM of three measurements; for inhibition at 100 µM: bovine kidney ALR1, 100 µM inhibitor, read-out: I (%, 100 µM) (ALR1)
T1 construct: The calf’s kidneys were obtained after slaughtering and dissection; from tissue; host or cells: calf kidneys
Experimental: Compounds 3a-o were tested against ALR2 to evaluate their inhibitory potential against aldose reductase whereas selectivity was determined via performing ALR1 inhibition assay. For the enzyme inhibition assay, ALR2 and ALR1 were extracted from bovine sources (ALR2 from eyes and ALR1 from kidneys). Moreover, inhibitions studies were also carried out on the expressed ALR2 (human AKR1B1) and inhibition data for ALR2- bovine source and expressed enzyme was compared and analyzed. The protocols for enzyme extraction and expression in the bacterial system are included in the section of “Supporting information”. […] For the purpose of comparison and validation of enzyme inhibition data, these compounds were tested against human AKR1B1 (hAKR1B1) expressed in E. coli BL21 (DE3). We found a similar pattern of enzyme inhibition for the synthesized compounds against extracted enzyme (ALR2) as well as expressed enzyme (hAKR1B1).
(§1) For the determination of enzyme activity of ALR1 and ALR2, 100 µL of reaction mixture was composed of 20 µL of buffer (100 mM sodium phosphate, pH 6.2), 30 µL of enzyme extract, 20 µL of substrate (10 mM), 20 µL of cofactor (0.1 mM of NADPH) and 10 µL of test compound (1 mM)[6],[21]. The reaction mixture without cofactor was incubated at 32°C for 10 min, then the enzymatic reaction was initiated with the addition of NADPH and monitored for 5 minutes. Similar protocols were followed for ALR1 and ALR2, however the substrate was different for each enzyme, with sodium-D-glucoronate and DL-glyceraldehyde used as the substrates for the ALR1 and ALR2 assays, respectively. […] In addition, similar protocols were adopted for human AKR1B1 that was expressed in E. coli BL21 (DE3), though the determined protein concentration was 12 µg/mL for the expressed enzyme. Detailed protocols for the preparation of ALR1, ALR2 and expressed human AKR1B1 can be found in the supporting information.
(§2) The newly synthesized N-substitute thiosemicarbazones (3a-o) were dissolved in 100% DMSO and diluted with deionized water, keeping the DMSO concentration equal to 0.1% in the assay.
The calf’s kidneys were obtained after slaughtering and dissection, dissolved in 3 volumes of sodium phosphate buffer (10mM) which is composed of 2.0 mM EDTA, 2.5mM β-mercaptoethanol, 0.25M solution of sucrose at pH 7.25. First, the homogenisation was carried out then centrifugation of the homogenate was performed at 12000 x g at 0-2^◦C for 30 minutes. The precipitates containing insoluble lipids were discarded and the collected supernatant layer was treated with 40% saturation of ammonium sulphate. This liquid mixture was subjected to centrifugation at 11000 x g at 0-2^◦C for 30 minutes. Now, precipitates were again discarded and supernatant was collected and treated with 50% ammonium sulphate and procedure was repeated in the same manner as in previous step. In the last step, the saturation of ammonium sulphate was increased up to 75% and supernatant was subjected to same parameter of centrifugation. At this final step, precipitates were obtained and supernatant layer was discarded. The obtained material of precipitates was composed of ALR1and redissolved in initial buffer that was used during homogenisation. Finally, material was dialyzed overnight with same buffer system. The dialyzed fractions containing ALR1 were stored at -80^◦C for further use[5].

[3] = biological target: T2, human AKR1B1 (hAKR1B1) (Homo sapiens, UniProt P15121); experiment: Inhibition of expressed human AKR1B1 (E. coli BL21 (DE3)); type: biochemical; conditions: for IC50: human AKR1B1 expressed in E. coli BL21 (DE3), mean ± SEM of three measurements; for inhibition at 100 µM: human AKR1B1 expressed in E. coli, 100 µM inhibitor, read-out: I (%, 100 µM) (AKR1B1)
T2 construct: made in house; host or cells: E. coli BL21 (DE3)
Experimental: For the enzyme inhibition assay, ALR2 and ALR1 were extracted from bovine sources (ALR2 from eyes and ALR1 from kidneys). Moreover, inhibitions studies were also carried out on the expressed ALR2 (human AKR1B1) and inhibition data for ALR2- bovine source and expressed enzyme was compared and analyzed. The protocols for enzyme extraction and expression in the bacterial system are included in the section of “Supporting information”. […] For the purpose of comparison and validation of enzyme inhibition data, these compounds were tested against human AKR1B1 (hAKR1B1) expressed in E. coli BL21 (DE3).
as §1, with “The reaction mixture without cofactor was incubated at 32°C for 10 min, then the enzymatic reaction was initiated with the addition of NADPH and monitored for 5 minutes.” left out
as §2
The expression plasmid for aldose reductase (pDONR223_AKR1B1_WT) was gift from Addgene in stable culture. Streaking of this culture has been carried out on LB Agar plate then incubated overnight, after growth of colonies , inoculation was performed in LB medium then incubated this medium in shaking incubator at 37 °C. After 48 hours turbidity was measured when OD=0.6 then some of bacterial growth was prepared as 50% glycerol stock. Others are subjected to plasmid isolation following method Miniprep. Meanwhile E. Coli BL21 De3 cells were made competent then transformation with extracted plasmid (AKR1B1) had been carried out heat shock method. Transformed cell ( E.Coli BL21 DE3+AKR1B1) were grown in 37 °C in shaking incubator for 48 hr. The selection for transformed cells was carried out with the help of antibiotic (spectinomycin 50µg/ml). […] For the expression of aldose reductase , E.coli BL21DE3 were induced with of IPTG(Isopropyl-d-thiogalactopyranoside)[3]. […] The expressed enzyme was stabilized by addition 10 mM Tris–HCl buffer, 0.5 mM EDTA, 5 mM β-marcaptoethanol at pH 8.0 and 20% (v/v) glycerol. Cells were lysed with lysis buffer and then precipitation with ammonium sulfate up to 80% saturation was done . the expressed enzyme was dialyzed overnight against tris buffer. Protein quantification was performed following Bradford protein assay. Aliqoutes were stored at -80 refrigerator.

[4] = biological target: T3, ALR2 (Bos taurus, UniProt P16116); experiment: ALR2 enzyme inhibition assay (enzyme extracted from calf lenses); type: biochemical, bovine; conditions: for IC50: bovine lens ALR2, substrate DL-glyceraldehyde, mean ± SEM of three measurements; for inhibition at 100 µM: bovine lens ALR2, 100 µM inhibitor, read-out: I (%, 100 µM) (ALR2) (converted)
T3 construct: from tissue; host or cells: calf eye lenses
Experimental: Compounds 3a-o were tested against ALR2 to evaluate their inhibitory potential against aldose reductase whereas selectivity was determined via performing ALR1 inhibition assay. For the enzyme inhibition assay, ALR2 and ALR1 were extracted from bovine sources (ALR2 from eyes and ALR1 from kidneys). Moreover, inhibitions studies were also carried out on the expressed ALR2 (human AKR1B1) and inhibition data for ALR2- bovine source and expressed enzyme was compared and analyzed. The protocols for enzyme extraction and expression in the bacterial system are included in the section of “Supporting information”. […] For the purpose of comparison and validation of enzyme inhibition data, these compounds were tested against human AKR1B1 (hAKR1B1) expressed in E. coli BL21 (DE3).
as §1, §2
The extraction of ALR2 was carried out from calf lenses via adopting method described in
in (Hayman and Kinoshita 1965) with little modification. The lenses were obtained from slaughterhouse immediately after calf’s slaughtering and stored at -20^◦C until further use. These lense (150-170g) were subjected to homogenization with about three times volume of cold distilled water and then centrifugation was carried out for the homogenate at 10,000 x g for 14 minutes for removal of insoluble lipids particles. Precipitates were discarded and supernatant layer was subjected to 40% saturation of ammonium sulphate and again centrifugation was performed with same parameters for 14 minutes and again precipitates were discarded. […] In the last step, the supernatant was subjected to 75% of saturation with ammonium sulphate to obtain ALR2. Now, the precipitates were collected instead supernatant because precipitated protein was the expected desired ALR2. The precipitated enzyme (ALR2) was redissolved in 50mM solution of sodium chloride and dialyzed for 24 hours against 50mM solution (3.5L) of NaCl. The volume was recorded before and after dialysis, then dialyzed material was treated with liquid nitrogen. The extracted ALR2 was stored in 1mL Eppendorf tube in deep freezer at -80 ^◦C till further enzymatic studies.

T1 sequence (Q3ZCJ2 whole entry): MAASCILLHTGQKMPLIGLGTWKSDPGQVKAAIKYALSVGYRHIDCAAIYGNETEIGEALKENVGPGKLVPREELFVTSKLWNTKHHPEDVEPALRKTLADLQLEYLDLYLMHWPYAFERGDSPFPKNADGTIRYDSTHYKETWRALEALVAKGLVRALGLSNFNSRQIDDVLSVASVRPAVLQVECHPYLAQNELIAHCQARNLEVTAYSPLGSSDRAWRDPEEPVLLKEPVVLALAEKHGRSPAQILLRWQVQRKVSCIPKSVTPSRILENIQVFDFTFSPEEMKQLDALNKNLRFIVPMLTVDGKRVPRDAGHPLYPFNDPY

Compound	% FRSA (percent free radical scavenging activity) [1] [%]	IC50 [2] [µM]	melting point [°C]	IC50 [3] [µM]	IC50 [4] [µM]	inhibition at 100 µM [2] [%]	inhibition at 100 µM [3] [%]	inhibition at 100 µM [4] [%]
CC(C)(C)c1cc(C=NNC(=S)Nc2ccccc2)c(O)c(C(C)(C)C)c1 [Compound 3a, 2-(3,5-di-tert-butyl-2-hydroxybenzylidene)-N-phenylhydrazinecarbothioamide]	79.41	2.83 ± 0.0034	178 to 180	3.89 ± 0.0034	2.99 ± 0.0021	–	–	–
Cc1ccc(NC(=S)NN=Cc2cc(C(C)(C)C)cc(C(C)(C)C)c2O)c(C)c1 [Compound 3b, 2-(3,5-di-tert-butyl-2-hydroxybenzylidene)-N-(2,4-dimethylphenyl)hydrazine carbothioamide]	84.05	–	186 to 188	–	–	≤ 31.6	27.4	≤ 44.6
COc1cccc(NC(=S)NN=Cc2cc(C(C)(C)C)cc(C(C)(C)C)c2O)c1 [Compound 3c, 2-(3,5-di-tert-butyl-2-hydroxybenzylidene)-N-(3-methoxyphenyl)hydrazine carbothioamide]	85.16	4.21 ± 0.0021	173 to 175	3.27 ± 0.0035	4.49 ± 0.0034	–	–	–
CC(C)(C)c1cc(C=NNC(=S)NCc2ccc(Cl)cc2)c(O)c(C(C)(C)C)c1 [Compound 3f, N-(4-chlorobenzyl)-2-(3,5-di-tert-butyl-2-hydroxybenzylidene)hydrazine carbothioamide]	82.98	–	184 to 186	3.04 ± 0.0034	3.12 ± 0.0031	4.27 to 26.2	–	–
CC(C)(C)c1cc(C=NNC(=S)Nc2cccc(Cl)c2Cl)c(O)c(C(C)(C)C)c1 [Compound 3j, 2-(3,5-di-tert-butyl-2-hydroxybenzylidene)-N-(2,3-dichlorophenyl)hydrazine carbothioamide]	89.75	–	193 to 195	2.75 ± 0.003	4.01 ± 0.0021	4.27 to 26.2	–	–
Cc1ccc(NC(=S)NN=Cc2cc(C(C)(C)C)cc(C(C)(C)C)c2O)cc1 [Compound 3k, 2-(3,5-di-tert-butyl-2-hydroxybenzylidene)-N-(p-tolyl)hydrazinecarbothioamide]	86.60	–	186 to 188	–	–	≤ 31.6	41.2	≤ 44.6
CC(C)(C)c1cc(C=NNC(=S)NCCc2ccccc2)c(O)c(C(C)(C)C)c1 [Compound 3o, 2-(3,5-di-tert-butyl-2-hydroxybenzylidene)-N-phenethylhydrazinecarbothioamide]	83.02	–	174 to 176	–	–	≤ 29.9	24.9	≤ 39.1
CCCC(CCC)C(=O)O [Valproic acid, reference compound]	–	49.31 ± 0.005	–	–	–	–	–	–

— article PMC8986850, “Development and exploration of novel substituted thiosemicarbazones as inhibitors of aldose reductase via in vitro analysis and computational study” (Scientific Reports, 2022)
